This note sets out measurements from patent US20230340011A1 (Asteroid Therapeutics, priority 2022, published 2023).

pEC50: −log10 of the molar value.

For this test, the target named is LXRβ (Homo sapiens (Human), UniProt P55055). Description: In vitro assay LXRβ: PathHunter NHR CHO cells, LXRβ / Steroid Receptor Co-activator Peptide enzyme fragment complementation. The class given is cell-based. Conditions: PathHunter NHR CHO cells, full-length human LXRβ and SRCP, chemiluminescent signal; read-out: LXRβ PPI. The method, then:
PathHunter NHR CHO cells stably transfected with tagged full-length human LXRβ and a nuclear fusion protein containing Steroid Receptor Co-activator Peptide (SRCP). The full-length human LXRβ was tagged with the ProLink™ component of the DiscoverX Enzyme Fragment Complementation (EFC) system and the SRCP domain is fused to the enzyme acceptor component (EA) expressed in the nucleus. Cells were seeded in a total volume of 20 μL into white walled, 384-well microplates and incubated at 37° C. overnight prior to testing. Assay media contained charcoal-dextran filtered serum to reduce the level of hormones present. Final assay vehicle concentration was 1%. […] Microplates were read following signal generation with a PerkinElmer Envision instrument for chemiluminescent signal detection.

LXRβ, sequence (P55055 whole entry, the tested form may be a part): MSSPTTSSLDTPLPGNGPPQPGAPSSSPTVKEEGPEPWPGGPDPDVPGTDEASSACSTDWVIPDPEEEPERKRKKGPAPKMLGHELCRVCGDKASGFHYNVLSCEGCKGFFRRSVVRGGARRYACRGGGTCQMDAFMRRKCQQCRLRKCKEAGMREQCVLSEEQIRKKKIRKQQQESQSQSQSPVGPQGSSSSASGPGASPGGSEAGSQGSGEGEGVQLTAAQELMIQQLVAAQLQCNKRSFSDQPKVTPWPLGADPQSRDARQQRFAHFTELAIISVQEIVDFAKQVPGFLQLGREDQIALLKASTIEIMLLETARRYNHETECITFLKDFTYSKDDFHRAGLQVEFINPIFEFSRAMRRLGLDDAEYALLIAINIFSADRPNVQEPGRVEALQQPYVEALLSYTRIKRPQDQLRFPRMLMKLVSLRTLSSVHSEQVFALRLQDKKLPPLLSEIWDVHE

As for `C[C@H](CCC(=O)N(C)OCCCO)[C@H]1CC[C@H]2[C@@H]3CC=C4C[C@@H](O)CC[C@]4(C)[C@H]3CC[C@]12C` [Example 30, (R)-4-((3S,8S,9S,10R,13R,14S,17R)-3-hydroxy-10,13-dimethyl-2,3,4,7,8,9,10,11,12,13,14,15,16,17-tetradecahydro-1H-cyclopenta[a]phenanthren-17-yl)-N-(3-hydroxypropoxy)-N-methylpentanamide], the pEC50 is 5.00 to 6.00. As to `COCCCON(C)C(=O)CC[C@@H](C)[C@H]1CC[C@H]2[C@@H]3CC=C4C[C@@H](O)CC[C@]4(C)[C@H]3CC[C@]12C` [Example 31, (R)-4-((3S,8S,9S,10R,13R,14S,17R)-3-hydroxy-10,13-dimethyl-2,3,4,7,8,9,10,11,12,13,14,15,16,17-tetradecahydro-1H-cyclopenta[a]phenanthren-17-yl)-N-(3-methoxypropoxy)-N-methylpentanamide], the pEC50 is 5.00 to 6.00. In the case of `C[C@H](CCC(=O)N1O[C@H]2C[C@@H]1[C@H](O)[C@@H]2O)[C@H]1CC[C@H]2[C@@H]3CC=C4C[C@@H](O)CC[C@]4(C)[C@H]3CC[C@]12C` [Example 54, (R)-1-((1S,4R,5S,6S)-5,6-dihydroxy-2-oxa-3-azabicyclo [2.2.1]heptan-3-yl)-4-((3S,8S,9S,10R,13R,14S,17R)-3-hydroxy-10,13-dimethyl-2,3,4,7,8,9,10,11,12,13,14,15,16,17-tetradecahydro-1H-cyclopenta[a]phenanthren-17-yl) pentan-1-one], the pEC50 was less than 5.00. Turning to `C[C@H](CCC(=O)N1O[C@@H]2C[C@H]1[C@@H](O)[C@H]2O)[C@H]1CC[C@H]2[C@@H]3CC=C4C[C@@H](O)CC[C@]4(C)[C@H]3CC[C@]12C` [Example 55, (R)-1-((1R,4S,5R,6R)-5,6-dihydroxy-2-oxa-3-azabicyclo[2.2.1]heptan-3-yl)-4-((3S,8S,9S,10R,13R,14S,17R)-3-hydroxy-10,13-dimethyl-2,3,4,7,8,9,10,11,12,13,14,15,16,17-tetradecahydro-1H-cyclopenta[a]phenanthren-17-yl)pentan-1-one], the pEC50 was less than 5.00. For `C[C@H](CCC(=O)N1OCC[C@@H]1C)[C@H]1CC[C@H]2[C@@H]3CC=C4C[C@@H](O)CC[C@]4(C)[C@H]3CC[C@]12C` [Example 57, (R)-4-((3S,8S,9S,10R,13R,14S,17R)-3-hydroxy-10,13-dimethyl-2,3,4,7,8,9,10,11,12,13,14,15,16,17-tetradecahydro-1H-cyclopenta[a]phenanthren-17-yl)-1-((S)-3-methylisoxazolidin-2-yl)pentan-1-one], the pEC50 is 6.00 to 6.60. Regarding `C[C@H]1CON(C(=O)CC[C@@H](C)[C@H]2CC[C@H]3[C@@H]4CC=C5C[C@@H](O)CC[C@]5(C)[C@H]4CC[C@]23C)C1` [Example 58, (R)-4-((3S,8S,9S,10R,13R,14S,17R)-3-hydroxy-10,13-dimethyl-2,3,4,7,8,9,10,11,12,13,14,15,16,17-tetradecahydro-1H-cyclopenta[a]phenanthren-17-yl)-1-((R)-4-methylisoxazolidin-2-yl)pentan-1-one], the pEC50 is 6.00 to 6.60. As for `C[C@@H]1CCN(C(=O)CC[C@@H](C)[C@H]2CC[C@H]3[C@@H]4CC=C5C[C@@H](O)CC[C@]5(C)[C@H]4CC[C@]23C)O1` [Example 59, (R)-4-((3S,8S,9S,10R,13R,14S,17R)-3-hydroxy-10,13-dimethyl-2,3,4,7,8,9,10,11,12,13,14,15,16,17-tetradecahydro-1H-cyclopenta[a]phenanthren-17-yl)-1-((R)-5-methylisoxazolidin-2-yl)pentan-1-one], the pEC50 was 6.00 to 6.60. Regarding `C[C@@H]1CCCN(C(=O)CC[C@@H](C)[C@H]2CC[C@H]3[C@@H]4CC=C5C[C@@H](O)CC[C@]5(C)[C@H]4CC[C@]23C)O1` [Example 60, (R)-4-((3S,8S,9S,10R,13R,14S,17R)-3-hydroxy-10,13-dimethyl-2,3,4,7,8,9,10,11,12,13,14,15,16,17-tetradecahydro-1H-cyclopenta[a]phenanthren-17-yl)-1-((R)-6-methyl-1,2-oxazinan-2-yl)pentan-1-one], the pEC50 was 6.00 to 6.60. As for `C[C@H](CCC(=O)N(C)OC1CCCC1)[C@H]1CC[C@H]2[C@@H]3CC=C4C[C@@H](O)CC[C@]4(C)[C@H]3CC[C@]12C` [Example 61, (R)-4-((3S,8S,9S,10R,13R,14S,17R)-3-hydroxy-10,13-dimethyl-2,3,4,7,8,9,10,11,12,13,14,15,16,17-tetradecahydro-1H-cyclopenta[a]phenanthren-17-yl)-N-(methyl)-N-cyclopentoxypentanamide], the pEC50 was 5.00 to 6.00. In the case of `CON(CC(=O)OC(C)(C)C)C(=O)CC[C@@H](C)[C@H]1CC[C@H]2[C@@H]3CC=C4C[C@@H](O)CC[C@]4(C)[C@H]3CC[C@]12C` [Example 75, tert-butyl N—((R)-4-((3S,8S,9S,10R,13R,14S,17R)-3-hydroxy-10,13-dimethyl-2,3,4,7,8,9,10,11,12,13,14,15,16,17-tetradecahydro-1H-cyclopenta[a]phenanthren-17-yl)pentanoyl)-N-methoxyglycinate] it was 6.00 to 6.60; in that of `C[C@H](CCC(=O)N(C)C)[C@H]1CC[C@H]2[C@@H]3CC=C4C[C@@H](O)C[C@H](O)[C@]4(C)[C@H]3CC[C@]12C` [Example 123, (R)-4-((1S,3R,8S,9S,10R,13R,14S,17R)-1,3-dihydroxy-10,13-dimethyl-2,3,4,7,8,9,10,11,12,13,14,15,16,17-tetradecahydro-1H-cyclopenta[a]phenanthren-17-yl)-N,N-dimethylpentanamide], 5.00 to 6.00; in that of `C[C@H](CCC(=O)N1CC(C)(C)[C@@H]2COC[C@@H]21)[C@H]1CC[C@H]2[C@@H]3CC=C4C[C@@H](O)CC[C@]4(C)[C@H]3CC[C@]12C` [Example 138, (4R)-1-(3,3-dimethylhexahydro-1H-furo[3,4-b]pyrrol-1-yl)-4-((3S,8S,9S,10R,13R,14S,17R)-3-hydroxy-10,13-dimethyl-2,3,4,7,8,9,10,11,12,13,14,15,16,17-tetradecahydro-1H-cyclopenta[a]phenanthren-17-yl)pentan-1-one], 6.00 to 6.60.

Consider `CON(C)C(=O)[C@H](C)C[C@@H](C)[C@H]1CC[C@H]2[C@@H]3CC=C4C[C@@H](O)CC[C@]4(C)[C@H]3CC[C@]12C` [Example 141, (2R,4R)-4-[(1R,3aS,3bS,7S,9aR,9bS,11aR)-7-hydroxy-9a,11a-dimethyl-2,3,3a,3b,4,6,7,8,9,9a,9b,10,11,11a-tetradecahydro-1H-cyclopenta[a]phenanthren-1-yl]-N-methoxy-N,2-dimethylpentanamide], for which the pEC50 was less than 5.00. In the case of `C[C@H](OC(=O)CN(C)C)[C@H]1CC[C@H]2[C@@H]3CC=C4C[C@@H](O)CC[C@]4(C)[C@H]3CC[C@]12C` [Example 143, (S)-1-((3S,8S,9S,10R,13S,14S,17S)-3-hydroxy-10,13-dimethyl-2,3,4,7,8,9,10,11,12,13,14,15,16,17-tetradecahydro-1H-cyclopenta[a]phenanthren-17-yl)ethyl dimethylglycinate] it was less than 5.00; in that of `C[C@H](OC(=O)C(N)=O)[C@H]1CC[C@H]2[C@@H]3CC=C4C[C@@H](O)CC[C@]4(C)[C@H]3CC[C@]12C` [Example 144, (S)-1-((3S,8S,9S,10R,13S,14S,17S)-3-hydroxy-10,13-dimethyl-2,3,4,7,8,9,10,11,12,13,14,15,16,17-tetradecahydro-1H-cyclopenta[a]phenanthren-17-yl)ethyl 2-amino-2-oxoacetate], less than 5.00.
